Experimental data taken from PubChem BioAssay (NCI).
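Grown in 96-well plates, cells were treated for 48 hours with each compound at five concentrations. Insufficient inhibition: endpoint recorded as highest concentration tested. TGI: concentration producing complete growth inhibition.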

Legend:
Experiment in all cases: NCI tumour cell line growth inhibition, 48 h
MDA-N = system: MDA-N
LOX IMVI melanoma = system: LOX IMVI melanoma
OVCAR-5 ovarian = system: OVCAR-5 ovarian
CAKI-1 renal = system: CAKI-1 renal
HS 578T breast = system: HS 578T breast
SK-MEL-28 melanoma = system: SK-MEL-28 melanoma
SF-268 CNS = system: SF-268 CNS
NCI-H460 lung = system: NCI-H460 lung
A549 NSCLC = system: A549 NSCLC
HOP-92 NSCLC = system: HOP-92 NSCLC
PC-3 prostate = system: PC-3 prostate
NCI-H226 lung = system: NCI-H226 lung
SK-MEL-2 melanoma = system: SK-MEL-2 melanoma
IGROV1 ovarian = system: IGROV1 ovarian
MCF7 breast = system: MCF7 breast
MOLT-4 leukemia = system: MOLT-4 leukemia
RXF 393 renal = system: RXF 393 renal
COLO 205 colon = system: COLO 205 colon
T-47D breast = system: T-47D breast
HCC-2998 colon = system: HCC-2998 colon
NCI/ADR-RES ovarian = system: NCI/ADR-RES ovarian
SN12C renal = system: SN12C renal
DU-145 prostate = system: DU-145 prostate
786-0 renal = system: 786-0 renal
SK-OV-3 ovarian = system: SK-OV-3 ovarian
UO-31 renal = system: UO-31 renal
CCRF-CEM leukemia = system: CCRF-CEM leukemia
OVCAR-4 ovarian = system: OVCAR-4 ovarian
SW-620 colon = system: SW-620 colon
BT-549 breast = system: BT-549 breast
MALME-3M melanoma = system: MALME-3M melanoma
SF-539 CNS = system: SF-539 CNS
A498 renal = system: A498 renal
ACHN renal = system: ACHN renal
SK-MEL-5 melanoma = system: SK-MEL-5 melanoma
EKVX NSCLC = system: EKVX NSCLC
HCT-116 colon = system: HCT-116 colon
OVCAR-8 ovarian = system: OVCAR-8 ovarian
UACC-257 melanoma = system: UACC-257 melanoma
MDA-MB-231 breast = system: MDA-MB-231 breast
K-562 leukemia = system: K-562 leukemia
SR leukemia = system: SR leukemia
NCI-H522 lung = system: NCI-H522 lung
TK-10 renal = system: TK-10 renal
MDA-MB-435 = system: MDA-MB-435
SNB-75 CNS = system: SNB-75 CNS
KM12 colon = system: KM12 colon
RPMI-8226 leukemia = system: RPMI-8226 leukemia
NCI-H23 lung = system: NCI-H23 lung
OVCAR-3 ovarian = system: OVCAR-3 ovarian
HCT-15 colon = system: HCT-15 colon
HT29 colon = system: HT29 colon
SF-295 CNS = system: SF-295 CNS
M14 melanoma = system: M14 melanoma
UACC-62 melanoma = system: UACC-62 melanoma
HOP-62 NSCLC = system: HOP-62 NSCLC
SNB-19 CNS = system: SNB-19 CNS
U251 CNS = system: U251 CNS

Question: With CC(=O)CC1CCC(=O)/C=C/C(=O)OC(CC(C)=O)CCC(=O)/C=C/C(=O)O1 (centres undefined) as the compound, how does the TGI (MDA-N) read?
Answer: 24 µM

Question: And the TGI (LOX IMVI melanoma)?
Answer: 35.1 µM

Question: And the TGI (OVCAR-5 ovarian)?
Answer: 31.5 µM

Question: What about the TGI (CAKI-1 renal) of the same compound?
Answer: 20 µM

Question: And the TGI (HS 578T breast)?
Answer: 69.9 µM

Question: And the TGI (SK-MEL-28 melanoma)?
Answer: 20.5 µM

Question: And the TGI (SF-268 CNS)?
Answer: 74 µM

Question: And the TGI (NCI-H460 lung)?
Answer: 36.3 µM

Question: And the TGI (A549 NSCLC)?
Answer: 43 µM

Question: What about the TGI (HOP-92 NSCLC) of the same compound?
Answer: 10.3 µM

Question: What about the TGI (PC-3 prostate) of the same compound?
Answer: 28.6 µM

Question: What about the TGI (NCI-H226 lung) of the same compound?
Answer: 61.3 µM

Question: And the TGI (SK-MEL-2 melanoma)?
Answer: 19.8 µM

Question: And the TGI (IGROV1 ovarian)?
Answer: 32.1 µM

Question: And the TGI (MCF7 breast)?
Answer: 27.6 µM

Question: And the TGI (MOLT-4 leukemia)?
Answer: > 100 µM

Question: And the TGI (RXF 393 renal)?
Answer: 8.55 µM

Question: What about the TGI (COLO 205 colon) of the same compound?
Answer: 3.4 µM

Question: And the TGI (T-47D breast)?
Answer: 6.79 µM

Question: What about the TGI (HCC-2998 colon) of the same compound?
Answer: 39.4 µM

Question: And the TGI (NCI/ADR-RES ovarian)?
Answer: 53.2 µM

Question: And the TGI (SN12C renal)?
Answer: 15.3 µM

Question: And the TGI (DU-145 prostate)?
Answer: 35 µM

Question: What about the TGI (786-0 renal) of the same compound?
Answer: 10.6 µM

Question: And the TGI (SK-OV-3 ovarian)?
Answer: 36.1 µM

Question: And the TGI (UO-31 renal)?
Answer: 26.9 µM

Question: What about the TGI (CCRF-CEM leukemia) of the same compound?
Answer: > 100 µM

Question: And the TGI (OVCAR-4 ovarian)?
Answer: 25.4 µM

Question: And the TGI (SW-620 colon)?
Answer: 3.65 µM

Question: And the TGI (BT-549 breast)?
Answer: 6.7 µM

Question: And the TGI (MALME-3M melanoma)?
Answer: 6.72 µM

Question: What about the TGI (SF-539 CNS) of the same compound?
Answer: 34.9 µM

Question: What about the TGI (A498 renal) of the same compound?
Answer: 33.7 µM

Question: And the TGI (ACHN renal)?
Answer: 11.2 µM

Question: What about the TGI (SK-MEL-5 melanoma) of the same compound?
Answer: 27.3 µM

Question: What about the TGI (EKVX NSCLC) of the same compound?
Answer: 21.2 µM

Question: What about the TGI (HCT-116 colon) of the same compound?
Answer: 9.08 µM

Question: What about the TGI (OVCAR-8 ovarian) of the same compound?
Answer: 53.5 µM

Question: What about the TGI (UACC-257 melanoma) of the same compound?
Answer: 31.4 µM

Question: And the TGI (MDA-MB-231 breast)?
Answer: 15 µM

Question: What about the TGI (K-562 leukemia) of the same compound?
Answer: > 20.9 µM

Question: What about the TGI (SR leukemia) of the same compound?
Answer: > 100 µM

Question: What about the TGI (NCI-H522 lung) of the same compound?
Answer: 2.91 µM

Question: What about the TGI (TK-10 renal) of the same compound?
Answer: 19 µM

Question: And the TGI (MDA-MB-435)?
Answer: 32 µM

Question: And the TGI (SNB-75 CNS)?
Answer: 28.8 µM

Question: And the TGI (KM12 colon)?
Answer: 42.8 µM

Question: And the TGI (RPMI-8226 leukemia)?
Answer: > 100 µM

Question: And the TGI (NCI-H23 lung)?
Answer: 36.4 µM

Question: What about the TGI (OVCAR-3 ovarian) of the same compound?
Answer: 17.1 µM

Question: What about the TGI (HCT-15 colon) of the same compound?
Answer: 4.16 µM

Question: What about the TGI (HT29 colon) of the same compound?
Answer: 31.6 µM

Question: What about the TGI (SF-295 CNS) of the same compound?
Answer: 18.4 µM

Question: And the TGI (M14 melanoma)?
Answer: 10.6 µM

Question: What about the TGI (UACC-62 melanoma) of the same compound?
Answer: 29.1 µM

Question: What about the TGI (HOP-62 NSCLC) of the same compound?
Answer: 42.8 µM

Question: And the TGI (SNB-19 CNS)?
Answer: 43.4 µM

Question: And the TGI (U251 CNS)?
Answer: 42.8 µM

Question: Which TGI (MDA-N) does the source give for O=C(C(=O)n1ccc2ccccc21)n1ccc2ccccc21 here?
Answer: > 100 µM

Question: What about the TGI (LOX IMVI melanoma) of the same compound?
Answer: > 100 µM

Question: What about the TGI (OVCAR-5 ovarian) of the same compound?
Answer: > 100 µM

Question: What about the TGI (CAKI-1 renal) of the same compound?
Answer: > 100 µM

Question: What about the TGI (HS 578T breast) of the same compound?
Answer: > 100 µM

Question: And the TGI (SK-MEL-28 melanoma)?
Answer: > 100 µM

Question: And the TGI (SF-268 CNS)?
Answer: > 100 µM

Question: And the TGI (NCI-H460 lung)?
Answer: > 100 µM

Question: And the TGI (A549 NSCLC)?
Answer: > 100 µM

Question: And the TGI (HOP-92 NSCLC)?
Answer: > 100 µM

Question: What about the TGI (PC-3 prostate) of the same compound?
Answer: > 100 µM

Question: And the TGI (NCI-H226 lung)?
Answer: > 100 µM

Question: And the TGI (SK-MEL-2 melanoma)?
Answer: > 100 µM

Question: And the TGI (IGROV1 ovarian)?
Answer: 53.1 µM

Question: And the TGI (MCF7 breast)?
Answer: > 100 µM

Question: What about the TGI (MOLT-4 leukemia) of the same compound?
Answer: > 100 µM

Question: And the TGI (RXF 393 renal)?
Answer: > 100 µM

Question: What about the TGI (COLO 205 colon) of the same compound?
Answer: > 100 µM

Question: What about the TGI (T-47D breast) of the same compound?
Answer: > 100 µM

Question: What about the TGI (HCC-2998 colon) of the same compound?
Answer: > 100 µM

Question: What about the TGI (NCI/ADR-RES ovarian) of the same compound?
Answer: > 100 µM

Question: And the TGI (SN12C renal)?
Answer: > 100 µM

Question: What about the TGI (DU-145 prostate) of the same compound?
Answer: > 100 µM

Question: And the TGI (786-0 renal)?
Answer: > 100 µM

Question: And the TGI (SK-OV-3 ovarian)?
Answer: > 100 µM

Question: What about the TGI (UO-31 renal) of the same compound?
Answer: > 100 µM

Question: What about the TGI (CCRF-CEM leukemia) of the same compound?
Answer: > 100 µM

Question: And the TGI (OVCAR-4 ovarian)?
Answer: 78 µM

Question: What about the TGI (SW-620 colon) of the same compound?
Answer: > 100 µM

Question: What about the TGI (BT-549 breast) of the same compound?
Answer: > 100 µM

Question: What about the TGI (MALME-3M melanoma) of the same compound?
Answer: > 100 µM

Question: And the TGI (SF-539 CNS)?
Answer: > 100 µM

Question: And the TGI (A498 renal)?
Answer: > 100 µM

Question: And the TGI (ACHN renal)?
Answer: > 100 µM

Question: And the TGI (SK-MEL-5 melanoma)?
Answer: > 100 µM

Question: And the TGI (EKVX NSCLC)?
Answer: > 100 µM

Question: What about the TGI (HCT-116 colon) of the same compound?
Answer: > 100 µM

Question: And the TGI (OVCAR-8 ovarian)?
Answer: > 100 µM

Question: What about the TGI (UACC-257 melanoma) of the same compound?
Answer: > 100 µM

Question: What about the TGI (MDA-MB-231 breast) of the same compound?
Answer: > 100 µM

Question: And the TGI (K-562 leukemia)?
Answer: > 100 µM

Question: What about the TGI (SR leukemia) of the same compound?
Answer: > 100 µM

Question: And the TGI (NCI-H522 lung)?
Answer: > 100 µM

Question: And the TGI (TK-10 renal)?
Answer: > 100 µM

Question: And the TGI (MDA-MB-435)?
Answer: > 100 µM

Question: What about the TGI (SNB-75 CNS) of the same compound?
Answer: 56 µM

Question: And the TGI (RPMI-8226 leukemia)?
Answer: > 100 µM

Question: What about the TGI (NCI-H23 lung) of the same compound?
Answer: > 100 µM

Question: What about the TGI (OVCAR-3 ovarian) of the same compound?
Answer: > 100 µM

Question: What about the TGI (HCT-15 colon) of the same compound?
Answer: > 100 µM

Question: And the TGI (HT29 colon)?
Answer: > 100 µM

Question: What about the TGI (SF-295 CNS) of the same compound?
Answer: > 100 µM

Question: And the TGI (UACC-62 melanoma)?
Answer: > 100 µM

Question: What about the TGI (HOP-62 NSCLC) of the same compound?
Answer: > 100 µM

Question: And the TGI (SNB-19 CNS)?
Answer: > 100 µM

Question: And the TGI (U251 CNS)?
Answer: > 100 µM
